Test results taken from PMC11788587, “Validating Low‐Dose Iohexol as a Marker for Glomerular Filtration Rate by In Vitro and In Vivo Studies” (Clinical and Translational Science, 2025).

Key:
[1] = molecular target: T1, hOAT1 (Homo sapiens, UniProt Q4U2R8); assay: Substrate assessment: iohexol uptake in 293 cells expressing hOAT1 vs control; assay type: in vitro ADME; conditions: 10 μM iohexol, median (95% CI)
T1 construct: expressed in transfected cells; host or cells: HEK-293 (293) cells, pEBTetD plasmid, doxycycline-induced
T1 sequence (Q4U2R8 1-563): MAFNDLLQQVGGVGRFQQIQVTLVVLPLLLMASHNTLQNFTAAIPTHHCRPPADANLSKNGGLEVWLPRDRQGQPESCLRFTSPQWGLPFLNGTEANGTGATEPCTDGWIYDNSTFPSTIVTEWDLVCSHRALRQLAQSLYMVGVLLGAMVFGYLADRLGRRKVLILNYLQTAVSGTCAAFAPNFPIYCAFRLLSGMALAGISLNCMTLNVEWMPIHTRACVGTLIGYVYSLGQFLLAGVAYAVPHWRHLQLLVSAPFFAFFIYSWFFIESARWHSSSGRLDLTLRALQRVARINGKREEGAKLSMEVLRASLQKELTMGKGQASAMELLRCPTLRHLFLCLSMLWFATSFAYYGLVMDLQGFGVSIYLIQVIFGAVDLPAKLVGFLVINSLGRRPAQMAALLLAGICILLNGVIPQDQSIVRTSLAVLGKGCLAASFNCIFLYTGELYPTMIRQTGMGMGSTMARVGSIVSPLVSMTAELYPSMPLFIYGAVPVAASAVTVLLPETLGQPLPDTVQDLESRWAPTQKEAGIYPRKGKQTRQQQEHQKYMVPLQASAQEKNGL
Source text: (§1) We characterized the inhibitory potential of iohexol on major drug transporters recommended by regulatory agencies, which were previously assessed in a clinical transporter phenotyping cocktail study. These transporters include hOAT1, hOAT3, hOCT1, hOCT2, hMATE1, hMATE2K, human organic anion transporter polypeptides (hOATP)1B1, hOATP1B3, and human multidrug resistance protein (hMDR)1. Additionally, we investigated whether iohexol is a substrate for any of the renal transporters among these, including hOAT1/3, hOCT1/2, and hMATE1/2K. Cell‐based uptake assays were used to assess the activities of hOAT1/3, hOCT1/2, hMATE1/2K, and hOATP1B1/1B3. Inside‐out membrane vesicle uptake assays were used to evaluate the activity of hMDR1.
(§2) For substrate assessments, iohexol was incubated with stably transfected HEK‐293 cells expressing one of the following transporters: hOAT1, hOAT3, hOCT1, hOCT2, hMATE1, or hMATE2K, as well as with control cells lacking transporter expression. Stably transfected cell lines containing pEBTetD plasmids with wild‐type human transporter cDNAs were generated as previously described. Transporter expression was induced by adding 1 μg/mL doxycycline to the growth medium for at least 20 h. Iohexol would be considered a substrate for these transporters if: (1) the ratio of iohexol uptake in cells expressing the transporter to that in control cells was ≥ 2, and (2) a known inhibitor of the transporter reduced iohexol uptake to ≤ 50% at concentrations ≥ 10 times its inhibition constant or half‐maximal inhibitory concentration.
(§3) Uptake assays were performed using stably transfected 293 cells, with or without the expression of one of the following transporters: hOAT1, hOAT3, hOCT1, hOCT2, hMATE1, or hMATE2K, as previously described.^1
(§4) For the substrate assessment, cells were incubated with 10 µM iohexol for 10 minutes and 30 minutes for each transporter. Inhibition assays were performed using specific standard substrates for each transporter: 10 µM para-aminohippuric acid (PAH) for hOAT1, 3 µM estrone-3-sulfate (E3S) for hOAT3, 50 µM metformin for hOCT1, 5 µM metformin for hOCT2, and 3 µM 1-methyl-4-phenylpyridinium (MPP+) for hMATE1 and hMATE2K. […]
(§5) R version 4.2.1 (R Foundation for Statistical Computing, Vienna, Austria) was used for statistical evaluations and data visualization. The data analysis approach for the in vitro study was detailed by Hsin CH et al..^1 In brief, for transport assays, the initial uptake rate was calculated by normalizing the substrate concentration to both the protein concentration and the incubation time for each dish or well. The transporter-mediated uptake rate (net uptake) was determined by performing an element-wise subtraction of uptake rates from different conditions. […]

[2] = molecular target: T2, hOCT2 (Homo sapiens, UniProt O15244); assay: Substrate assessment: iohexol uptake in 293 cells expressing hOCT2 vs control; assay type: in vitro ADME; conditions: 10 μM iohexol, median (95% CI)
T2 construct: expressed in transfected cells; host or cells: HEK-293 (293) cells, pEBTetD plasmid, doxycycline-induced
T2 sequence (O15244 1-555): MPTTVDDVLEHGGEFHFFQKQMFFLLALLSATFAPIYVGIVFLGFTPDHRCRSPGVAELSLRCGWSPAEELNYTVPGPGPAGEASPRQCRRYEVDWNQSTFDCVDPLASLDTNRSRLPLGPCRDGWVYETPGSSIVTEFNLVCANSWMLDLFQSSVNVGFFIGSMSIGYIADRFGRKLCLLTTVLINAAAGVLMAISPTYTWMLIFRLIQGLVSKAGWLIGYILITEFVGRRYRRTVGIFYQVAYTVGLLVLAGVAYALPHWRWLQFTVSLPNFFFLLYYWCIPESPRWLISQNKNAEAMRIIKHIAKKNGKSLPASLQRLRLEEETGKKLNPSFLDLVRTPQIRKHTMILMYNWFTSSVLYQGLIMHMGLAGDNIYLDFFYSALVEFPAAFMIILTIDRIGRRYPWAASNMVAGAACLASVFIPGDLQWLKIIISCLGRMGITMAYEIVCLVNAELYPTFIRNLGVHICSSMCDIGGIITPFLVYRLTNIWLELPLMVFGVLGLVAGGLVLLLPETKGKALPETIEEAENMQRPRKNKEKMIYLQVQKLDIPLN
Source text: as §1, §2, §3, §4, §5

With `CC(=O)N(CC(O)CO)c1c(I)c(C(=O)NCC(O)CO)c(I)c(C(=O)NCC(O)CO)c1I` (centres unmarked) [iohexol] the “Differences in intracellular accumulation (expression on minus off)” value (“Differences … (expression on minus off)” for short) ([1]; 10 minutes) was -0.39 (-3.4 to 1.1) pmol/mg protein, the “Uptake ratio (transporter-expressing vs non-expressing cells)” value ([1]; 10 minutes) was 0.91 (0.75 to 1.2) and the “Differences … (expression on minus off)” value ([1]; 30 minutes) was 0.98 (-0.62 to 2.1) pmol/mg protein. For the same molecule, the “Uptake ratio (transporter-expressing vs non-expressing cells)” value ([1]; 30 minutes) was 1.1 (0.95 to 1.3), the “Differences … (expression on minus off)” value ([2]; 10 minutes) was 1.3 (0.007 to 2.6) pmol/mg protein and the “Uptake ratio (transporter-expressing vs non-expressing cells)” value ([2]; 10 minutes) was 1.1 (1 to 1.2). The “Differences … (expression on minus off)” value ([2]; 30 minutes) was 1.5 (-1.4 to 2.9) pmol/mg protein and the “Uptake ratio (transporter-expressing vs non-expressing cells)” value ([2]; 30 minutes) was 1.1 (0.9 to 1.3).
